Data reported in patent US20240368090A1, “SOLID STATE FORMS OF D[…] PROCESS FOR THEIR PREPARATION” (REDDY’S LABORATORIES LIMITED, priority 2023, published 2024).

Test: physical and chemical stability under standard stability conditions
Assay type: physicochemical
Description: In another aspect of the present disclosure, the crystalline form DP-9 of Daprodustat which is physically & chemically stable under standard stability conditions like 25° C.-60% RH, 40° C.-75% RH and 2-8° C. for at least 3 months.

Measured: physically & chemically stable for at least

O=C(O)CNC(=O)C1C(=O)N(C2CCCCC2)C(=O)N(C2CCCCC2)C1=O [Form DP-9]
at least 3 months: 2-8° C. | 25° C.-60% RH | 40° C.-75% RH
